Usually mass density stands for mass per unit of volume.

Numbers after ± are expanded uncertainties.

Mass density and Normal boiling temperature data for three compounds are collected here from the NIST ThermoML archive (doi:10.1016/j.fluid.2015.03.049).

The conditions of the data set: Liquid; for mass density: 101.33 kPa, Vibrating tube method; for Normal boiling temperature: Ebulliometric method (Recirculating still).

Take `COCOC` [dimethoxymethane]: the Normal boiling temperature is 42.00 ± 0.2 °C. Moreover, under “303.15 K”, the mass density is given as 848.59 ± 0.13 kg/m3.

As for `COC=O` [methyl methanoate], the Normal boiling temperature was determined as 31.50 ± 0.2 °C. Besides, the mass density (288.15 K) came to 980.82 ± 0.11 kg/m3.

For the compound `COC(=O)OC` [dimethyl carbonate], the Normal boiling temperature is 90.00 ± 0.2 °C. Besides, the mass density (298.15 K) is recorded as 1063.3 ± 0.12 kg/m3.
